According to paper PMC12670396, “Crizotinib- or Ceritinib-Conjugated Platinum(IV) Prodrugs As Potent Multiaction Agents Inducing Antiproliferative Effects in 2D and 3D Cancer Cell Models” (Journal of Medicinal Chemistry, 2025):
Read-outs that look alike come from different tables or passages of the source.

How the values were obtained:
[1] = Stability in RPMI cell culture medium with serum (HPLC); conditions: for intact Pt(IV) prodrug still present: after 3 days in the media
Description: Two conditions must be met for Pt(IV) complexes to serve as true prodrugs: they must remain stable in biological fluids and should be activated by reduction within the cancer cells to release the bioactive components in their active form, thereby facilitating the rapid onset of cytotoxic effects. […] The reduction in the area of the HPLC peak of the compounds was monitored as a function of time, and their half-lives were calculated (Table and Figures S26,S27).
The stock solutions were prepared by dissolving the compounds in a 1:9 (v/v) mixture of DMSO and RPMI media. After preparation, the samples were injected and stored at 37 °C throughout the experiment. The final concentration of the complexes used for the experiment is 50–60 μM.

[2] = Reduction by L-ascorbic acid in phosphate buffer (RP-HPLC); assay type: physicochemical; conditions: 10 equiv L-ascorbic acid, 10% DMSO in 100 mM phosphate buffer pH 7.4, 37 °C
Description: The reduction of Pt(IV) complexes was performed by reacting with 10 equiv of L-ascorbic acid in 10% DMSO in 100 mM phosphate buffer (pH 7.4) at 37 °C, and was monitored by reverse-phase analytical HPLC. The half-lives for the reduction were calculated from the decreasing peak areas as a function of time.
The reduction of the Pt(IV) complexes was performed in the presence of 10 equiv of L-ascorbic acid (AA) in phosphate buffer (100 mM, pH 7.4) at 37 °C using reverse-phase analytical HPLC. […] The platinum complexes were dissolved in 10% DMSO with 50% MeOH and added to 100 mM phosphate buffer (pH 7.4). […] The samples were injected and stored at 37 °C throughout the experiment.

A549 = experiment: MTT cytotoxic/antiproliferative activity, 72 h; assay type: cell-based, human; conditions: A549, MTT, 72 h
NCI-H2228 = experiment: MTT cytotoxic/antiproliferative activity, 72 h; assay type: cell-based, human; conditions: NCI-H2228, MTT, 72 h
U87-MG = experiment: MTT cytotoxic/antiproliferative activity, 72 h; assay type: cell-based, human; conditions: MTT, 72 h
Description: (§1) A panel of six cancer cell lines was used to evaluate the cytotoxic potential of the investigated compounds.
(§2) Cytotoxicity in hepatocyte-like cells (HLC). STEMdiff Hepatocyte Kit was used to generate HLC from human pluripotent stem cells. Cytotoxicity of several of the tested compounds in HLC was evaluated using the sulphorhodamine B assay.

HCT116 = experiment: MTT cytotoxic/antiproliferative activity, 72 h; assay type: cell-based, human; conditions: HCT116, MTT, 72 h
RD = experiment: MTT cytotoxic/antiproliferative activity, 72 h; assay type: cell-based, human; conditions: MTT, 72 h
MDA-MB-231 = experiment: MTT cytotoxic/antiproliferative activity, 72 h; assay type: cell-based, human; conditions: MDA-MB-231, MTT, 72 h
IMR-90 = experiment: MTT cytotoxicity in noncancerous cells, 72 h; assay type: cell-based, human; conditions: IMR-90, MTT
Description: (§3) Growth inhibition activity in cancer cell lines was compared with the activity to inhibit the proliferation of normal (noncancerous) cells, namely MRC-5, IMR-90, hTERT-HPNE, and MCF10A cells. Selectivity indexes (SI) were calculated as (IC50 in noncancerous cells)/(average IC50 in cancer cells). […] We further assessed the toxicity of several of the compounds in hepatocyte-like cells (HLC) generated from human pluripotent cells.
as §2

MCF10A = experiment: MTT cytotoxicity in noncancerous cells, 72 h; assay type: cell-based, human
Description: as §3, §2

MRC-5 = experiment: MTT cytotoxicity in noncancerous cells, 72 h; assay type: cell-based, human
Description: as §3, §2

hTERT-HPNE = experiment: MTT cytotoxicity in noncancerous cells, 72 h; assay type: cell-based, human
Description: as §3, §2

CHOK1 = experiment: MTT cytotoxicity in NER-proficient cells, 72 h; assay type: cell-based, Chinese hamster
Text: (§4) The cytotoxicity assay was also employed to determine whether DNA damage might be involved in the mechanism of action of the tested compounds. The Chinese hamster ovary MMC2 cell line harbors the ERCC3/XPB mutation, which renders it deficient in nucleotide excision repair (NER), whereas the parent line CHOK1 is proficient in this repair process. Thus, the MMC2 line is often more sensitive to agents causing DNA damage, especially NER-reparable DNA damage, than CHOK1. […] Phosphorylation of H2AX is a commonly used marker of DNA damage.
as §2

MMC2 = experiment: MTT cytotoxicity in NER-deficient cells, 72 h; assay type: cell-based, Chinese hamster; conditions: for Index F: IC50(CHOK1)/IC50(MMC2); for IC50: MMC2 (NER deficient), MTT, 72 h
Text: as §4, with “damage. […]” for “damage.”

[3] = test system: panel of six cancer cell lines; experiment: MTT, panel of six cancer cell lines (average, ranges); assay type: cell-based, human; conditions: average over six cancer cell lines, read-out: av cancer (average IC50 in cancer cells)
Description: as §1, §2

[4] = test system: normal (noncancerous) cells MRC-5, IMR-90, hTERT-HPNE, MCF10A; experiment: MTT, noncancerous cell lines (average, selectivity index); assay type: cell-based, human; conditions: for SI, selectivity index: IC50(normal cells)/averageIC50(cancer cells); for IC50: average over MRC-5, IMR-90, hTERT-HPNE, MCF10A, read-out: av norm (average IC50 in noncancerous cells)
Description: as §3, with “pluripotent cells. […]” for “pluripotent cells.”

[5] = Cytotoxicity in hepatocyte-like cells, sulphorhodamine B assay; assay type: cell-based; conditions: hepatocyte-like cells from human pluripotent cells
Description: as §3, §2

A549 spheroids = experiment: Cytotoxicity in 3D spheroids, CellTiter-Glo 3D; assay type: cell-based, human; conditions: Homo sapiens, A549 3D spheroids, 96 h
Description: (§5) In the 3D structure, the gradients of gases, nutrients, and therapeutics play a role in the final cytotoxicity of a compound.
(§6) A549 and NCI-H2228 cells were seeded in ultralow attachment, U-shape plates (Corning) at a density of 800 cells/well in the tumorsphere medium consisting of DMEM/F12 medium (Sigma), fibroblast growth factor (20 ng/mL; Sigma), epidermal growth factor 2 (10 ng mL^–1; Sigma), B27 supplement (1×; Gibco), bovine serum albumin, bovine serum albumin (BSA) (1.5 mg mL^–1; Sigma). […] CellTiter-Glo 3D viability assay was used for the experiment evaluation following the manufacturer’s instructions. The bioluminescence signal, proportional to the number of living cells, was measured using the luminescence reader SPARK, and IC50 values were calculated.

NCI-H2228 spheroids = experiment: Cytotoxicity in 3D spheroids, CellTiter-Glo 3D; assay type: cell-based, human; conditions: Homo sapiens, NCI-H2228 3D spheroids, 96 h
Description: as §5, §6

CT26 cell line = experiment: MTT cytotoxic/antiproliferative activity, 72 h; assay type: cell-based, murine; conditions: Mus musculus
[6] = 10% DMSO in RPMI cell culture medium containing serum, 37 °C, HPLC

Row | SMILES | intact Pt(IV) prodrug still present ([1]; 37 °C) | stability half-life (t 1/2) ([1]; serum) [h] | reduction half-life (t 1/2) [2] [h] | IC50 (A549) [nM] | IC50 (NCI-H2228) [nM] | IC50 (U87-MG) [nM] | IC50 (HCT116) [nM] | IC50 (RD) [nM] | IC50 (MDA-MB-231) [nM] | IC50 (IMR-90) [µM] | IC50 (MCF10A) [nM] | IC50 (MRC-5; MRC-5, MTT) [µM] | IC50 (hTERT-HPNE) [µM] | IC50 (CHOK1) [nM] | Index F (MMC2) | IC50 (MMC2) [nM] | IC50 [3] [nM] | SI, selectivity index [4] | IC50 [4] [µM] | stability half-life (t 1/2) [1, 6] [h] | also measured
1 | C[C@@H](Oc1cc(-c2cnn(C3CCN(C(=O)[O][Pt]4([O]C(=O)CCCc5ccccc5)[O]C(=O)C(=O)[O]4)CC3)c2)cnc1N)c1c(Cl)ccc(F)c1Cl.N[C@@H]1CCCC[C@H]1N [compound 4, ctc-[Pt(DACH)(crizotinib)(PhB)(Ox)]] | more than 80% | >75 | 11.5 | 1500 ± 400 | 1300 ± 400 | 1800 ± 400 | 1000 ± 200 | 1600 ± 200 | 1500 ± 500 | 2.9 ± 0.4 | 2400 ± 500 | 3.1 ± 0.9 | 3.2 ± 0.6 | 1400 ± 400 | 1.08 | 1300 ± 400 | 1500 | 1.9 | 2.9 | – | –
2 | Cc1cc(Nc2ncc(Cl)c(Nc3ccccc3S(=O)(=O)C(C)C)n2)c(OC(C)C)cc1C1CCN(C(=O)[O][Pt]2([O]C(=O)CCCc3ccccc3)[O]C(=O)C(=O)[O]2)CC1.N[C@@H]1CCCC[C@H]1N [compound 8, ctc-[Pt(DACH)(ceritinib)(PhB)(Ox)]] | > 65% | – | 12.5 | 1300 ± 200 | 800 ± 300 | – | 880 ± 60 | 2200 ± 400 | 1500 ± 400 | 5 ± 0.6 | 2900 ± 400 | 2.3 ± 0.6 | 3.1 ± 0.6 | 1100 ± 200 | 1.22 | 900 ± 200 | 1300 | 2.5 | 3.3 | >75 | –
3 | O=C1[O][Pt]2([NH][C@@H]3CCCC[C@H]3[NH]2)[O]C1=O [OxPt, oxaliplatin, reference compound] | – | – | – | 1600 ± 600 | 3800 ± 400 | – | 1300 ± 100 | 4300 ± 500 | 6200 ± 900 | – | – | – | – | – | – | – | – | – | – | – | –
4 | CC(Oc1cc(-c2cnn(C3CCN(C(=O)[O][Pt]([OH])([Cl])[Cl])CC3)c2)cnc1N)c1c(Cl)ccc(F)c1Cl.N.N (stereo not drawn) [compound 2, ctc-[Pt(NH3)2(crizotinib)(OH)Cl2]] | – | 75 | 2.7 | 800 ± 100 | 740 ± 80 | 2000 ± 700 | 2100 ± 500 | 2000 ± 400 | 1900 ± 600 | 7.4 ± 0.7 | 5100 ± 600 | 4.2 ± 0.9 | 5.2 ± 0.6 | 1500 ± 600 | 1.95 | 770 ± 90 | 1600 | 3.4 | 5.5 | – | –
5 | C[C@@H](Oc1cc(-c2cnn(C3CCNCC3)c2)cnc1N)c1c(Cl)ccc(F)c1Cl [compound 1, crizotinib] | – | – | – | – | – | – | – | – | – | – | – | – | – | – | – | – | – | – | – | – | IC50 (A549; Homo sapiens): 1000 ± 200 nM; IC50 (NCI-H2228; Homo sapiens): 820 ± 70 nM; IC50 (U87-MG; Homo sapiens, U-87 MG): 3900 ± 500 nM; IC50 (HCT116; Homo sapiens, HCT-116): 1900 ± 500 nM; IC50 (RD; Homo sapiens): 1400 ± 400 nM; IC50 (MDA-MB-231; Homo sapiens): 1200 ± 300 nM; IC50 (IMR-90; Homo sapiens): 7.6 ± 0.9 µM; IC50 (MCF10A; Homo sapiens, MCF-10A): 6400 ± 700 nM; IC50 (MRC-5; Homo sapiens, MRC5, MRC-5, MTT): 4.3 ± 0.3 µM; IC50 (hTERT-HPNE; Homo sapiens): 6.9 ± 0.8 µM; IC50 (CHOK1; Cricetulus griseus, CHO-K1): 1300 ± 500 nM; IC50 (MMC2; Cricetulus griseus): 1400 ± 300 nM; IC50 ([3]; Homo sapiens): 1700 nM; IC50 ([4]; Homo sapiens): 6.3 µM; IC50 [5]: 9 ± 3 µM; IC50 (A549 spheroids): 3000 ± 1000 nM; IC50 (NCI-H2228 spheroids): 1500 ± 300 nM; IC50 (CT26 cell line): 1800 ± 400 nM
6 | Cc1cc(Nc2ncc(Cl)c(Nc3ccccc3S(=O)(=O)C(C)C)n2)c(OC(C)C)cc1C1CCN(C(=O)[O][Pt]([OH])([Cl])[Cl])CC1.N.N [compound 6, ctc-[Pt(NH3)2(ceritinib)(OH)Cl2]] | – | – | 2.2 | 350 ± 60 | 210 ± 60 | 800 ± 200 | 700 ± 300 | 600 ± 200 | 1100 ± 300 | 4.1 ± 0.9 | 2600 ± 200 | 2.6 ± 0.9 | 2.7 ± 0.5 | 1100 ± 200 | 3.79(*) | 290 ± 90 | 630 | 4.8 | 3 | 48 | –
